From patent EP4385495A1, “NANOSYSTEMS FOR THE ENCAPSULATION OF THERAPEUTIC AGENTS” (National Technical University of Athens, priority 2022, dated 2024)

Columns and labels:
[1] = target: T1, soybean lipoxygenase (LOX) (Glycine max, UniProt P08170); test: Soybean lipoxygenase inhibition assay in vitro; assay type: biochemical
T1 sequence (P08170 1-839): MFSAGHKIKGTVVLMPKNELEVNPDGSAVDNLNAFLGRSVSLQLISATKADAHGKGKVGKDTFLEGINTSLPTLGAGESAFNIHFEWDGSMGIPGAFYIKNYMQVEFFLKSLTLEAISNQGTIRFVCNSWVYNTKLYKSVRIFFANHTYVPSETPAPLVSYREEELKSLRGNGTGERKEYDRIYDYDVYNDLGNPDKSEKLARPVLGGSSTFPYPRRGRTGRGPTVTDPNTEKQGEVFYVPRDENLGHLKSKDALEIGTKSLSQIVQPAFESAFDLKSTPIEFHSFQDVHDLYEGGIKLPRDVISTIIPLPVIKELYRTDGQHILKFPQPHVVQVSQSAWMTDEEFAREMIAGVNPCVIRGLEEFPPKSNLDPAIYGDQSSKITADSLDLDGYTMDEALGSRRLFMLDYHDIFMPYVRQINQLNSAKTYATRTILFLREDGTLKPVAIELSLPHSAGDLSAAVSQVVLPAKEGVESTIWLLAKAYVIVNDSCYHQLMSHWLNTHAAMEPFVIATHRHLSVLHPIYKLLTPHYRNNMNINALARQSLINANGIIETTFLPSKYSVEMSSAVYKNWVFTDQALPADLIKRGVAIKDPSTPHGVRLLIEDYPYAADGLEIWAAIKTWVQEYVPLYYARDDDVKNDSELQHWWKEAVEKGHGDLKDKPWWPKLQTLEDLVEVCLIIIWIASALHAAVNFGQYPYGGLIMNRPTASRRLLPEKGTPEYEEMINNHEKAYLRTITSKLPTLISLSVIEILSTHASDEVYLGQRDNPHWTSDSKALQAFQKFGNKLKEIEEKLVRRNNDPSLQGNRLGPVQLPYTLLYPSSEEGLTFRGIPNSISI
Experimental: The soybean lipoxygenase (LOX) test is a representative assay for anti-inflammatory activity since LOX is implicated in the inflammatory cascade. LOXs contain a "non-heme" iron per molecule in the catalytic active site as high-spin Fe^+2 in the native state and high-spin Fe^+3 in the activated state. […] The inhibitory activity of several LOX inhibitors, such as phenolic derivatives, can be attributed to their chelating capacity to Fe^+3. In brief, two reaction mixtures are prepared in UV cuvettes for each sample, the first reaction mixture contains LOX solution (dissolved in Tris buffer, pH 9) and the sample under examination, whereas the second reaction mixture also contained LLA solution (dissolved in 0.9% NaCl). Both reaction mixtures were measured at room temperature at 234 nm. The inhibition of LOX was measured in the presence of the same level of DMSO, which served as control.
Table 2: Anti-inflammatory potential of the samples expressed as % inhibition of LOX

[2] = system: experimental animal model of osteoarthritis (OA); test: Knee diameter (digital caliper) and gross observations in collagenase-induced osteoarthritis rat model; assay type: in vivo, Wistar rats; settings: for Right knee diameter: collagenase-injected knee; for Left knee diameter: untreated control knee
Experimental: In order to understand the anti-inflammatory and antioxidant potential of the nanoparticles of the invention in vivo an experimental animal model of osteoarthritis (OA) was established. The OA lesions were caused by matrix degradation of articular cartilage using enzymatic means, such as collagenase type-II. Following the induction of osteoarthritis, the studied nanoparticles were administered for 8 weeks in which period the morphological and behavioral changes were measured and finally histological analysis of the articular cartilage samples concluded the in vivo study.
Healthy adult male Wistar rats (150-200 g) were used for the study, with water and food ad libitum, at a constant temperature of 22°C and controlled lighting (12 h light/12 h dark cycle).
As far as the dispersion procedure of the injectables is concerned, all the natural compounds were dissolved in saline solution, whereas the studied nanoparticles were mechanically grinded in a mortar and pestle set with saline solution and Tween 20 (2% w/v) and heated at 36 °C before each treatment. There were six treatments administered every 10 days. At the end of the experiment rats were euthanized and both knees were collected for histological analysis.
Rats were anesthetized with chloral hydrate. The right knee joints of Group I were injected with normal saline solution and served as a control. Animals from the groups II, III, IV, V, VI, VII were injected with collagenase type II (Clostridium histolyticum). Collagenase (125 collagen digestion unit/mg) was dissolved in saline, and it was injected intra-articularly into the right knee joint twice on days 1 and 4 of the experiment (Al-Saffar, F., H. Ganabadi and S. Fakurazi. Collagenase and sodium iodoacetate-induced experimental osteoarthritis model in Sprague dawley rats. Asian J. Sci. Res. 2: 1-13, 2009). The left knees of all animals were left untreated as a control.
Changes in body weight and knee diameter were measured on the 1st, 4th,11th,21st,31st,41st,51st, 61st, 71st day before every injection. Knee diameter was measured using a digital caliper. […] A change in body weight is also measured as one of the parameters to assess the course of the disease in the OA animal models.

[3] = system: RAW264.7 cells; test: MTT cell viability assay; assay type: cell-based, mouse; settings: for % cell viability: 24h
Text: The MTT (3-[4,5-dimethylthiazol-2-yl]-2,5 diphenyl tetrazolium bromide) assay is based on the ability of viable cells with active metabolism to convert the yellow MTT to a purple formazan product, which determines mitochondrial activity. The MTT formazan product agglomerates as an insoluble residuum within the cells, which can be solubilized (in this protocol with DMSO) for homogeneous measurement. Thus, any increase or decrease in the number of viable cells can be detected by measuring the formazan concentration reflected in the optical density (OD) measurement at 540 nm with a reference absorption of 720 nm. This assay is broadly used to measure the in vitro cytotoxic effects of drugs on cell lines or primary cells. For the experimental procedure a standard solution of MTT 1mg/mL in PBS was prepared which after filtration ([…] filter (Millipore, Carrigtwohill, Ireland)) was stored in the dark (4-8 °C) until use. In brief, RAW 264.7 cells were seeded in a 96-well plate at a density of 30.000 cells/ in 100 µL of medium per well. […] This was followed by incubation for 24 h, 48 h and 72 h. At the end of the incubation 10 µL of MTT was added to each well followed by incubation for 4 hours, for the formation of the formazan crystals. The formazan crystals were then dissolved by adding DMSO and stirring lightly for 30 min, after which the absorbance was measured in a plate reader at 540 nm with a reference absorbance of 720 nm. […] Table 4: % cell viability after treatment of RAW264.7 cells with the samples

[4] = 40 days (half of experimental protocol)
[5] = 70 days (end of experimental protocol)

For C[C@@H]1O[C@@H](O[C@H]2[C@H](Oc3cc(O)c4c(c3)O[C@H](c3ccc(O)cc3)CC4=O)O[C@H](CO)[C@@H](O)[C@@H]2O)[C@H](O)[C@H](O)[C@H]1O [S1 [NAR], Naringin], the inhibition at 25 µM ([1]; 25 µM, 24h) was 7.1%, the inhibition at 50 µM ([1]; 50 µM, 24h) was 21.2% and the inhibition at 100 µM ([1]; 100 µM, 24h) was 44.6%. The “LOX inhibition at 48 and 72 h compared with 24 h (in words)” value ([1]; 48 and 72 h) was “no significant difference”, the “% Changes in Left knee diameter” value ([2]; 11 days (before treatment)) was 0,26% and the “% Changes in Right knee diameter” value ([2]; 11 days (before treatment)) was 4,14%. The “% Changes in Left knee diameter” value [2, 4] was 0,79%, the “% Changes in Right knee diameter” value [2, 4] was 3,25% and the “% Changes in Left knee diameter” value [2, 5] was 0,84%. For the same compound, the “% Changes in Right knee diameter” value [2, 5] was 2,35%, the Right knee diameter ([2]; 1st injection CO/saline (before treatment)) was 0,85 cm and the Right knee diameter ([2]; 1st treatment, 10 mg/kg (S1, ibuprofen i.p.; nanoparticles i.a.)) was 0,8852 cm. The Right knee diameter ([2]; 2nd injection CO/saline (before treatment)) was 0,882 cm, the Right knee diameter ([2]; 3rd treatment) was 0,9 cm and the Right knee diameter ([2]; 4th treatment) was 0,8776 cm. For the same compound, the Right knee diameter ([2]; 5th treatment) was 0,8712 cm, the Right knee diameter ([2]; 6th treatment) was 0,87 cm and the Right knee diameter ([2]; final) was 0,87 cm. The Left knee diameter ([2]; 1st injection CO/saline) was 0,8572 cm, the Left knee diameter ([2]; 1st treatment) was 0,8594 cm and the Left knee diameter ([2]; 2nd injection CO/saline) was 0,858 cm. The Left knee diameter ([2]; 4th treatment) was 0,864 cm, the Left knee diameter ([2]; final) was 0,8644 cm and the “% cell viability” value ([3]; 25 µM) was 100%. The “% cell viability” value ([3]; 50 µM) was 100% and the “cytotoxicity / cell viability (in words)” value ([3]; lower concentrations) was “full cell viability”.
